Like-named read-outs stand apart in the source and are kept apart here.
Experiments:
BTK C481S = target: T1, BTK C481S (Homo sapiens, UniProt Q06187, C481S); experiment: PD screen in TMD8 BTK C481S mutant tumor-bearing mice, BTK levels and compound concentrations in blood and tumor; type: in vivo, mouse; settings: 20 mgL/kg (unconjugated V)
T1 construct: endogenous in cells; host or cells: TMD8 BTK C481S mutant tumour xenografts in mice
Outline: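 Single compound injection in mice bearing TMD8 BTK C481S tumors, groups of 2, with blood and tumor sampled at day 0, 4, 7 and sometimes 10. Compound levels measured by UPLC/MS-MS and BTK levels by Meso Scale Discovery.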

[1] = In vivo pharmacokinetic study in mice (i.v. or s.c.), FAC and payload in blood; parameters: species or system mouse; settings: for AUC: male, C57/B16, whole blood

T1 sequence (Q06187 whole entry C481S): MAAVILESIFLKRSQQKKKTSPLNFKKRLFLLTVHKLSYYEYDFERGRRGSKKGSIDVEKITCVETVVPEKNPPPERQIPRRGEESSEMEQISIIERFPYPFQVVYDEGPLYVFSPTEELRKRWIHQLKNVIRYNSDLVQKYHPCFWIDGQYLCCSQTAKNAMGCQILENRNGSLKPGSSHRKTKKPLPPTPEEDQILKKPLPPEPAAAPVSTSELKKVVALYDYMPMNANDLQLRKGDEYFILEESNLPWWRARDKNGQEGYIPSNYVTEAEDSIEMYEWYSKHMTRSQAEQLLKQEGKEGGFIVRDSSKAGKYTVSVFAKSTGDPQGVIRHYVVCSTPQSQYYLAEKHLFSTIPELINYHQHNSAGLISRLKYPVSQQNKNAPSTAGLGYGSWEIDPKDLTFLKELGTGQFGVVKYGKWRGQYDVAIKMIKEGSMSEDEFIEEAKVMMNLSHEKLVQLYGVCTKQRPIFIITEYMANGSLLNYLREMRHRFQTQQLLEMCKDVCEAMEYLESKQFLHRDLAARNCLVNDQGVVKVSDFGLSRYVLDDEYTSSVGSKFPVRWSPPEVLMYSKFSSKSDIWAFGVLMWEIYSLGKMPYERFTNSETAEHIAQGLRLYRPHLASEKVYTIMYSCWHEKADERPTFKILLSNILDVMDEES

In the case of COc1ccc(C(=O)N2CCC3(CCN(CCc4ccc(-c5cc6c(-c7cc(F)cc(NC(=O)c8ccc(C(C)(C)O)cc8F)c7C)ncnc6[nH]5)cc4)CC3)CC2)cc1N1CCC(=O)NC1=O [Compound V, N-(3-(6-(4-(2-(9-(3-(2,4-Dioxotetrahydropyrimidin-1(2H)-yl)-4-methoxybenzoyl)-3,9-diazaspiro[5.5]undecan-3-yl)ethyl)phenyl)-7H-pyrrolo[2,3-d]pyrimidin-4-yl)-5-fluoro-2-methylphenyl)-2-fluoro-4-(2-hydroxypropan-2-yl)benzamide], the “Duration of BTK degradation in mouse ≥90%” value (BTK C481S; i.v.) is reported as under 4 days, the “Duration of BTK degradation in mouse ≥90% (days)” value (BTK C481S; s.c.) is reported as “Not tolerated” and the “Payload C0-uM (unconjugated degrader dosed, first payload cell)” value ([1]; API i.v., species taken as mouse, listed as note (1 umol/kg), head 10 umol/kg) is reported as 8.1 µM. The AUC ([1]; iv, API i.v., species taken as mouse, listed as note (1 umol/kg), head 10 umol/kg, read-out: Payload AUC-uM.h (unconjugated degrader dosed, first payload cell)) was 8.2 µM·h and the AUC ([1]; sc, mouse, subcutaneous dosing, unconjugated Compound V at 1 umol/kg, read-out: Payload AUC) was 8.2 µM·h.
